Test results: ChEMBL document CHEMBL5233224, “Therapeutic potential of targeting SHP2 in human developmental disorders and cancers” (Eur J Med Chem, 2020)
pIC50, pKi: −log10 of the molar value.

Experiments:
[1] = biological target: T1, Tyrosine-protein phosphatase non-receptor type 11 (Homo sapiens, UniProt Q06124); assay: Inhibition of GST fused SHP2 PTP domain (unknown origin) using EFpYAEVGRSPPDPAK peptide as substrate incubated for 30 mins by malachite green staining based analysis
T1 sequence (Q06124 whole entry): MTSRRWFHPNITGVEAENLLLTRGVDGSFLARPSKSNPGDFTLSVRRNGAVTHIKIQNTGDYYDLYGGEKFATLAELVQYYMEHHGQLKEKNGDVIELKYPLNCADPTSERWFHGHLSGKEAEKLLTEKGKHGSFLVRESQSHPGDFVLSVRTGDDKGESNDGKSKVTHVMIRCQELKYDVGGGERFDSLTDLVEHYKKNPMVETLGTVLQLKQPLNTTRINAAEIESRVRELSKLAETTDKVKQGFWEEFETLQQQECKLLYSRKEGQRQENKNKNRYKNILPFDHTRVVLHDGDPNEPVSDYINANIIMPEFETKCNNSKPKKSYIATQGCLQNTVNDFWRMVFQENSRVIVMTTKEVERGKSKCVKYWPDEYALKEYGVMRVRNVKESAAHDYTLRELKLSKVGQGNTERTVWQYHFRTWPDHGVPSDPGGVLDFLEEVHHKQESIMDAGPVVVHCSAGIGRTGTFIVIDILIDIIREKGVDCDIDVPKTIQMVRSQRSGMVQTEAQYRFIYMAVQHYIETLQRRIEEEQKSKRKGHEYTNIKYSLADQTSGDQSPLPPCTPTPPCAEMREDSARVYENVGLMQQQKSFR

[2] = biological target: Tyrosine-protein phosphatase non-receptor type 6 (Homo sapiens, UniProt P29350); assay: Inhibition of SHP1 (unknown origin)
Chain of Tyrosine-protein phosphatase non-receptor type 6 (P29350 whole entry): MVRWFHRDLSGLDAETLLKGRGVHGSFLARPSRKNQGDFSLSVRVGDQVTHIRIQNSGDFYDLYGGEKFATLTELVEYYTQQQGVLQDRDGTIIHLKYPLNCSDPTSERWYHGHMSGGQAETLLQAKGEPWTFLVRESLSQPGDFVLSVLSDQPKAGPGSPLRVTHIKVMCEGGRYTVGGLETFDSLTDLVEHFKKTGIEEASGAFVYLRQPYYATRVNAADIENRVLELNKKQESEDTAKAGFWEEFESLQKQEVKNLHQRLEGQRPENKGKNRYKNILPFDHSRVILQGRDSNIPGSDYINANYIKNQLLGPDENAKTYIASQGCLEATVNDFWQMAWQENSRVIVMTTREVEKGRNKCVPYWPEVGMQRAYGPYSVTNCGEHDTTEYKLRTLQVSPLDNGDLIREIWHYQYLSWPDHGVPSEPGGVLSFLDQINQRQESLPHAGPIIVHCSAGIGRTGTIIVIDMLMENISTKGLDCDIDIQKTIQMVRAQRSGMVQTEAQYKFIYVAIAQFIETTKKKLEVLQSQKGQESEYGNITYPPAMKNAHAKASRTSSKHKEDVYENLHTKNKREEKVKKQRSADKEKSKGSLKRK

BaF3 = assay: Antiproliferative activity against mouse BaF3 cells assessed as cell growth inhibition measured after 48 hrs by MTS assay; type: functional, cell-based; conditions: BaF3, 48 h
[3] = biological target: T1, Tyrosine-protein phosphatase non-receptor type 11; assay: Binding affinity to SHP2 (unknown origin) assessed as inhibition constant
[4] = biological target: T2, Receptor-type tyrosine-protein phosphatase O (Homo sapiens, UniProt Q16827); assay: Binding affinity to GLEPP1 (unknown origin) assessed as inhibition constant
T2 sequence (Q16827 whole entry): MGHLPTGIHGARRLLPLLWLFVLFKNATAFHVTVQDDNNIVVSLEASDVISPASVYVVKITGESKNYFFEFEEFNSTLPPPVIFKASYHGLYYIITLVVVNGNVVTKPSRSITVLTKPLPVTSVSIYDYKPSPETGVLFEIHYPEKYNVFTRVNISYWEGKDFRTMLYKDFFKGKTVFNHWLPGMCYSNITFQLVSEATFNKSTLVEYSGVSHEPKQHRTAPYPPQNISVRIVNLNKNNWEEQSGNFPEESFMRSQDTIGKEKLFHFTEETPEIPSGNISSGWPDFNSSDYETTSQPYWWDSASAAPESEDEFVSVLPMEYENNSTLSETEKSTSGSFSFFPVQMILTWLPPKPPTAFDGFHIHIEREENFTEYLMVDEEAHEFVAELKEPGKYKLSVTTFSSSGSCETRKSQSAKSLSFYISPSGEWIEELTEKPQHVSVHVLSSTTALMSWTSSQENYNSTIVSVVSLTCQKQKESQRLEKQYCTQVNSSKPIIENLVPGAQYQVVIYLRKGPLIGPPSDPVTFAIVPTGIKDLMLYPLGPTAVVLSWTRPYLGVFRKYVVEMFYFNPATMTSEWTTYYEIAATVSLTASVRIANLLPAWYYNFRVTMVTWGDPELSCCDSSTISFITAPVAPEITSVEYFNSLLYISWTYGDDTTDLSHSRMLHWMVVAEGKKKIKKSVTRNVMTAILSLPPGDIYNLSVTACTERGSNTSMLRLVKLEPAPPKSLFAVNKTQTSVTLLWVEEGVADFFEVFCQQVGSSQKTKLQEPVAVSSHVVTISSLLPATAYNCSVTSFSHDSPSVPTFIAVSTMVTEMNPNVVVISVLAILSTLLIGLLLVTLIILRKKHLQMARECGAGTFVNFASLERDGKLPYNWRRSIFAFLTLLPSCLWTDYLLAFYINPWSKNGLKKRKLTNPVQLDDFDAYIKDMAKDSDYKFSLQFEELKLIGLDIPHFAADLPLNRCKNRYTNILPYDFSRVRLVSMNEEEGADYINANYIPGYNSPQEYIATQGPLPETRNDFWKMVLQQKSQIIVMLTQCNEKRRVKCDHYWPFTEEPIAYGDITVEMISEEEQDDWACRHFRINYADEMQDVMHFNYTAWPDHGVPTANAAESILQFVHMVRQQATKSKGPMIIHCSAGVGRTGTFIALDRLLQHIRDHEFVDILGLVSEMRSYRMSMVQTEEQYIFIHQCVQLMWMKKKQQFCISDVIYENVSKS

[5] = biological target: T1, Tyrosine-protein phosphatase non-receptor type 11; assay: Inhibition of SHP2 (unknown origin)
[6] = biological target: T1, Tyrosine-protein phosphatase non-receptor type 11; assay: Inhibition of human SHP2 (225 to 541 residues) using pNPP as substrate by microplate reader based analysis
[7] = biological target: T1, Tyrosine-protein phosphatase non-receptor type 11; assay: Inhibition of SHP2 (unknown origin) using pNPP as substrate by spectrophotometer analysis
[8] = biological target: T1, Tyrosine-protein phosphatase non-receptor type 11; assay: Inhibition of human His6-tagged wild type SHP2 PTP domain using pNPP as substrate by absorbance based analysis
[9] = biological target: Tyrosine-protein phosphatase non-receptor type 11 (Homo sapiens) (UniProt Q06124); assay: Inhibition of SHP2 (unknown origin) at 100 ug/ml; conditions: dose 100.0 µg/ml
[10] = biological target: T1, Tyrosine-protein phosphatase non-receptor type 11; assay: Inhibition of GST fused SHP2 PTP domain (unknown origin) using Thr-Arg-Asp-Ile-Tyr[PO3H2]-Glu-Thr-Asp-Tyr-Tyr as substrate incubated for 30 mins by malachite green staining based analysis

For `O=C(CCn1cnc2sc3c(c2c1=O)CCCCC3)Nc1ccccc1[N+](=O)[O-]`, the pIC50 [1] was 5.00, the pIC50 [2] was under 4.00 and the pIC50 (BaF3) was 4.97.

`CCCCCCN(Cc1ccc(C#Cc2ccc(CCCC)cc2)cc1)c1ccc(O)c(C(=O)O)c1` gave a pKi [3] of 6.19 and a pKi [4] of 6.91.

For `COc1cccc(-c2nnc3n(Cc4ccc(C(=O)N5CCC[C@H]5C(=O)O)cc4Cl)c(=O)c4ccccc4n23)c1O`, the pIC50 [5] was 4.72.

`CCOC(=O)c1ccc(N2N=C(c3ccc([N+](=O)[O-])cc3)/C(=N/Nc3ccc(S(=O)(=O)O)cc3)C2=O)cc1` showed a pIC50 [6] of 6.20.

Molecule `O=C(O)c1ccc(O)c(-c2nnc3n(Cc4ccccc4Cl)c(=O)c4ccccc4n23)c1` has a pIC50 [5] of 4.68.

`C=C/C(=C/C(=O)C[C@H](C)C[C@@H](C)CC[C@H](O)[C@H](C)C(=O)C[C@@H](O)[C@H](C)[C@@H](C)OC(=O)C[C@@H](O)/C(C(=O)O)=C(\C)C(=O)O)CC` was tested, and the pIC50 [7] was 5.54.

`C=CC(=O)Nc1ccnc2ccccc12` showed a pIC50 [8] of 4.46.

`O=C1C=CC(=O)C(c2cc(Cl)ccc2Cl)=C1` showed a pIC50 [5] of 6.40.

Molecule “(3R,4S,5R)-1-(((3S,4R,5R)-3-(carboxymethyl)-1-hydroxy-5-((R)-1-hydroxypropan-2-yl)-2,6,7-trioxa-1l5-stibabicyclo[2.2.1]heptan-1-yl)oxy)-5-((R)-1,2-dihydroxyethyl)-1-hydroxy-2,6,7-trioxa-1l5-stibabicyclo[2.2.1]heptane-3-carboxylic acid” has an inhibition [9] of 99%.

Molecule `Cc1cc(C)c2c(c1)[nH]c1nnc(SCC(=O)NCc3cccs3)nc12` has a pIC50 [10] of 4.86.
